Like-named read-outs stand apart in the source and are kept apart here.
How the values were obtained:
[1] = Study 2 (NCT02608710) safety: adverse events, laboratory, vital signs, ECG; format: in vivo, human
Protocol: (§1) Study 2 was a Phase 1, randomized, open‐label study comprising of three parts. Parts 1 and 2 assessed the pharmacokinetics and pharmacodynamics of single and multiple doses of verinurad, respectively (Figure 1). Part 3 assessed the effect of food on the pharmacokinetics and pharmacodynamics of verinurad and is not reported further herein. In the single‐dose assessment, […] were randomized 1:1:1:1:1:1 into 1 of 6 treatment sequences with a single dose of 4.5, 6, or 12 mg verinurad, administered on days 1, 5, and 9 (Figure 1). In the multiple‐dose assessment, 8 participants received 12 mg verinurad QD on days 1 to 7.
(§2) Analysis of safety was based on adverse events (AEs), laboratory assessments (including hematology, clinical chemistry, urinalysis, and coagulation), vital signs (systolic and diastolic blood pressure, and pulse rate), electrocardiogram (ECG), and physical examination. AEs were coded using the Medical Dictionary for Regulatory Activities. In Study 1, a treatment‐emergent AE was defined as an AE with onset (start date/time) after the first dose of study drug in the run‐in period (day –7). In Study 2, AEs were recorded from the time the participant signed the informed consent through to the follow‐up visit. ECGs were obtained after the participant rested in the supine position. Digital ECG analysis in Study 1 was performed at the AstraZeneca ECG Center.
(§3) Safety was assessed in the safety analysis set of each study, comprising all participants who received ≥1 dose of study drug. Continuous variables are summarized using descriptive statistics, and categorical variables are summarized as frequency and proportion.

[2] = parameters: method as in PMID 29950814; conditions: cited from earlier work
[3] = parameters: method as in PMID 29949102; conditions: cited from earlier work
[4] = system: serum uric acid (sUA) and urinary uric acid (uUA); assay: Study 2 pharmacodynamics: serum and urinary uric acid; format: in vivo, human; conditions: healthy non-Asian participants
Protocol: as §1
Key pharmacodynamic parameters included time‐matched percentage change from baseline (day –1) at each timepoint in sUA concentration, maximum observed percentage change from baseline (time‐matched, day –1) in sUA concentration (Emax,CB) and time to Emax,CB, amount of UA recovered in urine (Aeur), and fractional excretion of UA (FEUA).
(§4) Pharmacokinetics and pharmacodynamics were assessed in all participants who received ≥1 dose of study drug and had ≥1 corresponding assessment.

[5] = Study 2 plasma pharmacokinetics of verinurad; format: in vivo, human; conditions: healthy non-Asian participants; for Tmax: median (range); for half-life: read-out: t½λz (converted)
Protocol: as §1
(§5) In both studies, participants received verinurad capsules with an extended‐release profile. On the days of pharmacokinetic sampling, treatment was given in fasting state.
Verinurad plasma samples were analyzed using similar methodologies as described by Shen et al.[13] with lower and upper limits of quantification of 0.100 ng/mL and 40.0 ng/mL, respectively. The ability to dilute overrange samples was also confirmed. […].
as §4

[6] = Study 1 (NCT03836599) safety: adverse events, laboratory, vital signs, ECG; format: in vivo, human; conditions: Study 1, up to 24 mg verinurad + 300 mg allopurinol
Excerpt: (§6) Cohort 1 was randomized, double‐blind, and placebo‐controlled and consisted of 12 healthy Asian participants, of whom <50% were Chinese. Cohort 2 was open‐label, consisting of 9 healthy Chinese participants.
as §2, §3

[7] = Study 1 plasma pharmacokinetics of verinurad, allopurinol and oxypurinol; format: in vivo, human; conditions: for Tmax: median (range); for Cmax / AUC: geometric mean (gCV%)
Protocol: as §6, §5
Verinurad plasma samples were analyzed using similar methodologies as described by Shen et al.[13] with lower and upper limits of quantification of 0.100 ng/mL and 40.0 ng/mL, respectively.

[8] = parameters: method as in PMID 30334639; conditions: patients with gout, 1 Japanese study and 1 Western study; cited from earlier work
[9] = multiple-dose assessment, 12 mg verinurad QD (n = 8)
[10] = single-dose assessment, 4.5 mg verinurad (n = 16)
[11] = single-dose assessment, 6 mg verinurad (n = 16)
[12] = single-dose assessment, 12 mg verinurad (n = 16)
[13] = healthy Japanese male participants, day 6 after QD dosing with 15 mg verinurad modified-release formulation
[14] = single dose 15 mg verinurad, moderate renal impairment
[15] = single dose 15 mg verinurad, severe renal impairment
[16] = single dose, mild renal impairment
[17] = 12 mg verinurad QD, day 1, 3 to 6 h post-dose
[18] = 12 mg verinurad QD, day 7, 3 to 6 h post-dose
[19] = single dose 4.5 mg verinurad, 3 to 6 h post-dose
[20] = single dose 6 mg verinurad, 3 to 6 h post-dose
[21] = single dose 12 mg verinurad, 3 to 6 h post-dose
[22] = multiple-dose assessment 12 mg verinurad QD, Day 7, geometric mean (gCV%)
[23] = single dose 6 mg verinurad, geometric mean (gCV%)
[24] = single dose 12 mg verinurad, geometric mean (gCV%)
[25] = healthy Asian participants, 24 mg verinurad + 300 mg allopurinol QD, Day 7
[26] = healthy Chinese participants, 12 mg verinurad + 300 mg allopurinol day 1 and QD days 3-9, Day 9, arithmetic mean (SD)
[27] = healthy Chinese participants, 12 mg verinurad + 300 mg allopurinol, Day 1, arithmetic mean (SD)

SMILES: CC(C)(Sc1ccncc1-c1ccc(C#N)c2ccccc12)C(=O)O [verinurad]
- diarrhea, participants ([1]; human, in vivo): 2
- findings in laboratory parameters, vital signs, 12-lead ECG variables ([1]; in vivo): No clinically significant findings
- Death, Events [1, 9]: 0 Events
- Death, n (%) [1, 9]: 0 n (%)
- Death, Events [1, 10]: 0 Events
- Death, n (%) [1, 10]: 0 n (%)
- Death, Events [1, 11]: 0 Events
- Death, n (%) [1, 11]: 0 n (%)
- Death, Events [1, 12]: 0 Events
- Death, n (%) [1, 12]: 0 n (%)
- accumulation for AUC ([2]; after QD doses): 1.3 fold
- accumulation for Cmax ([2]; after QD doses): ~ 1.2 fold
- AUCτ [2, 13]: 239 ng·h/mL
- Cmax [2, 13]: 38.2 ng/mL
- AUC increase compared with normal renal function [3, 14]: 148%
- Cmax increase compared with normal renal function [3, 14]: 73%
- AUC increase compared with normal renal function [3, 15]: 130%
- Cmax increase compared with normal renal function [3, 15]: 128%
- AUC increase compared with normal renal function [3, 16]: 24%
- Cmax increase compared with normal renal function [3, 16]: 53%
- tEmax,CB, mean (SD) ([4]; 12 mg verinurad QD, Day 1): 9.0 (1.0) hour
- tEmax,CB, mean (SD) ([4]; 12 mg verinurad QD, Day 7): 7.0 (3.0) hour
- mean Aeur at peak, higher compared with day –1 [4, 17]: 353%
- mean FEUA at peak [4, 17]: 33.3%
- mean Aeur at peak, higher compared with day –1 [4, 18]: 81.3%
- mean FEUA at peak [4, 18]: 31.2%
- tEmax,CB, mean (SD) ([4]; single dose 4.5 mg verinurad): 8.0 (2.1) hour
- mean Aeur at peak, higher compared with day –1 [4, 19]: 219%
- mean FEUA at peak [4, 19]: 21.5%
- tEmax,CB, mean (SD) ([4]; single dose 6 mg verinurad): 8.0 (2.0) hour
- mean Aeur at peak, higher compared with day –1 [4, 20]: 267%
- mean FEUA at peak [4, 20]: 24.8%
- tEmax,CB, mean (SD) ([4]; single dose 12 mg verinurad): 9.0 (1.5) hour
- mean Aeur at peak, higher compared with day –1 [4, 21]: 338%
- mean FEUA at peak [4, 21]: 33.3%
- CL/F ([5]; multiple-dose assessment 12 mg verinurad QD, Day 1, geometric mean (gCV%)): 52.2 (20.2) L/h
- Tmax ([5]; multiple-dose assessment 12 mg verinurad QD, Day 1): 5.00 (2.00–6.00) h
- CL/F [5, 22]: 44.2 (27.3) L/h
- t½λz [5, 22]: 10.9 (19.1) h
- CL/F ([5]; single dose 4.5 mg verinurad, geometric mean (gCV%)): 51.8 (27.9) L/h
- Tmax ([5]; single dose 4.5 mg verinurad): 4.00 (2.00–6.00) h
- CL/F [5, 23]: 58.8 (40.5) L/h
- Cmax [5, 23]: 13.4 (67.6) ng/mL
- Tmax ([5]; single dose 6 mg verinurad): 4.00 (2.00–6.05) h
- CL/F [5, 24]: 58.3 (44.4) L/h
- t½λz [5, 24]: 12.2 (67.7) h
- Tmax ([5]; single dose 12 mg verinurad): 4.00 (2.00–6.00) h
- AUC ([5]; human, plasma, oral, 4.5 mg, single dose 4.5 mg verinurad, geometric mean (gCV%), read-out: AUC): 86.8 ng·h/mL
- AUC ([5]; human, plasma, oral, 4.5 mg, single dose 4.5 mg verinurad, geometric mean (gCV%), read-out: AUCτ): 68.1 ng·h/mL
- Cmax ([5]; human, plasma, oral, 4.5 mg, single dose 4.5 mg verinurad, geometric mean (gCV%), read-out: Cmax): 11.8 ng/mL
- AUC ([5]; human, plasma, oral, 6 mg, single dose 6 mg verinurad, geometric mean (gCV%), read-out: AUC): 102 ng·h/mL
- AUC ([5]; human, plasma, oral, 6 mg, single dose 6 mg verinurad, geometric mean (gCV%), read-out: AUCτ): 80.8 ng·h/mL
- AUC ([5]; human, plasma, oral, 12 mg, multiple-dose assessment 12 mg verinurad QD, Day 1, geometric mean (gCV%), read-out: AUC): 230 ng·h/mL
- AUC ([5]; human, plasma, oral, 12 mg, multiple-dose assessment 12 mg verinurad QD, Day 1, geometric mean (gCV%), read-out: AUCτ): 209 ng·h/mL
- Cmax ([5]; human, plasma, oral, 12 mg, multiple-dose assessment 12 mg verinurad QD, Day 1, geometric mean (gCV%), read-out: Cmax): 29.9 ng/mL
- AUC ([5]; human, plasma, oral, 12 mg, multiple-dose assessment 12 mg verinurad QD, Day 7, geometric mean (gCV%), read-out: AUCτ): 271 ng·h/mL
- Cmax ([5]; human, plasma, oral, 12 mg, multiple-dose assessment 12 mg verinurad QD, Day 7, geometric mean (gCV%), read-out: Cmax): 36.3 ng/mL
- AUC ([5]; human, plasma, oral, 12 mg, single dose 12 mg verinurad, geometric mean (gCV%), read-out: AUC): 206 ng·h/mL
- AUC ([5]; human, plasma, oral, 12 mg, single dose 12 mg verinurad, geometric mean (gCV%), read-out: AUCτ): 168 ng·h/mL
- Cmax ([5]; human, plasma, oral, 12 mg, single dose 12 mg verinurad, geometric mean (gCV%), read-out: Cmax): 28.6 ng/mL
- AUC ([5]; human, plasma, oral, 12 mg, single dose of verinurad 4.5, 6, or 12 mg, read-out: geometric mean AUCτ, range over doses): 68.1 to 168 ng·h/mL
- Cmax ([5]; human, plasma, oral, 12 mg, single dose of verinurad 4.5, 6, or 12 mg, read-out: geometric mean Cmax, range over doses): 11.8 to 28.6 ng/mL
- half-life ([5]; human, plasma, oral, multiple-dose assessment 12 mg verinurad QD, Day 1, geometric mean (gCV%)): 7.15 h
- Tmax ([5]; human, plasma, oral, multiple-dose assessment 12 mg verinurad QD, Day 7, read-out: tmax): 6 h
- half-life ([5]; human, plasma, oral, single dose 4.5 mg verinurad, geometric mean (gCV%)): 12.7 h
- half-life ([5]; human, plasma, oral, single dose 6 mg verinurad, geometric mean (gCV%)): 13.6 h
- tolerability [6]: well tolerated
- CL/F ([7]; healthy Asian participants, 24 mg verinurad + 300 mg allopurinol QD, Day 1, arithmetic mean (SD)): 48.6 (11.3) L/h
- Tmax ([7]; healthy Asian participants, 24 mg verinurad + 300 mg allopurinol QD, Day 1): 5.00 (4.98–6.02) h
- CL/F ([7]; healthy Asian participants, 24 mg verinurad + 300 mg allopurinol QD, Day 7, arithmetic mean (SD)): 50.9 (9.01) L/h
- Cmax [7, 25]: 73.6 (29.0) ng/mL
- Tmax [7, 25]: 5.00 (4.00–6.00) h
- CL/F [7, 26]: 47.9 (17.2) L/h
- t½λz [7, 26]: 6.27 (0.647) h
- CL/F [7, 27]: 43.4 (16.2) L/h
- t½λz [7, 27]: 12.9 (3.08) h
- Tmax ([7]; healthy Chinese participants, 12 mg verinurad + 300 mg allopurinol, Day 1): 5.00 (4.00–6.00) h
- half-life ([7]; human, plasma, oral, healthy Asian participants, 24 mg verinurad + 300 mg allopurinol QD, Day 1, arithmetic mean (SD), read-out: t½λz (converted)): 5.98 h
- AUC ([7]; human, plasma, oral, healthy Asian participants, 24 mg verinurad + 300 mg allopurinol QD, Day 1, read-out: AUC): 506 ng·h/mL
- AUC ([7]; human, plasma, oral, healthy Asian participants, 24 mg verinurad + 300 mg allopurinol QD, Day 1, read-out: AUCτ): 415 ng·h/mL
- Cmax ([7]; human, plasma, oral, healthy Asian participants, 24 mg verinurad + 300 mg allopurinol QD, Day 1, read-out: Cmax): 71.2 ng/mL
- AUC ([7]; human, plasma, oral, healthy Asian participants, 24 mg verinurad + 300 mg allopurinol QD, Day 7, read-out: AUCτ): 478 ng·h/mL
- AUC ([7]; human, plasma, oral, healthy Chinese participants, 12 mg verinurad + 300 mg allopurinol day 1 and QD days 3-9, Day 9, read-out: AUCτ): 264 ng·h/mL
- Cmax ([7]; human, plasma, oral, healthy Chinese participants, 12 mg verinurad + 300 mg allopurinol day 1 and QD days 3-9, Day 9, read-out: Cmax): 42 ng/mL
- Tmax ([7]; human, plasma, oral, healthy Chinese participants, 12 mg verinurad + 300 mg allopurinol day 1 and QD days 3-9, Day 9, read-out: tmax): 5.5 h
- AUC ([7]; human, plasma, oral, healthy Chinese participants, 12 mg verinurad + 300 mg allopurinol, Day 1, read-out: AUC): 295 ng·h/mL
- AUC ([7]; human, plasma, oral, healthy Chinese participants, 12 mg verinurad + 300 mg allopurinol, Day 1, read-out: AUCτ): 226 ng·h/mL
- Cmax ([7]; human, plasma, oral, healthy Chinese participants, 12 mg verinurad + 300 mg allopurinol, Day 1, read-out: Cmax): 47.6 ng/mL
- verinurad exposure, higher than in Western patients [8]: > 2 fold

— article PMC9121888 (Pharmacology Research & Perspectives, 2022)
